What was measured:
[1] = molecular target: Terminally biotinylated beta-amyloid (Aβ42) (Homo sapiens, UniProt P05067); assay: Aβ42 biotinylated (biotin-AB) oligomerization assay, NeutrAvidin capture ELISA; format: biochemical; settings: approximate value; 1 hr oligomerization at room temperature; read-out: IC50 Aβ 42-bio
How it was run: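 Biotin-Aβ42, pretreated with HFIP/TFA to remove seeds, oligomerized 1 h at room temperature with compound in 20 mM sodium phosphate pH 7.5, 150 mM NaCl (DMSO up to 1%). Oligomers captured on NeutrAvidin plates, detected with streptavidin-HRP/TMB at 450 nm; IC50 approximate, in µM.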

Aβ40 = Aβ40 (Homo sapiens, UniProt P05067); assay: ThT Aβ aggregation assay (kinetic Thioflavin T fluorescence); format: biochemical; settings: 20 μM Aβ, DMSO control at 80 hr = 0% inhibition, number in parenthesis = compound ID 1027 in that experiment; for inhibition at 10 µM: compound 10 μM, read-out: % inhib Thioflavin T Aβ 40 10 μM
Sequence of Aβ40 (P05067 672-711, species assumed): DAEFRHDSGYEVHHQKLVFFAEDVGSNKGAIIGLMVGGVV
Method: Preparation of Aβ40 Stock Solutions
Aβ40 (1.0 mg) was pre-treated in a 1.5 mL microfuge tube with HFIP (1 mL) and sonicated for 20 min to disassemble any pre-formed Aβ aggregates. The HFIP was removed with a stream of argon and the Aβ dissolved in Tris base (5.8 mL, 20 mM, pH ˜10). The pH was adjusted to 7.4 with concentrated HCl (˜10 μL) and the solution filtered using a syringe filter (0.2 μm) before being used.
The kinetic ThT assay for Aβ aggregation is similar to that of Chalifour et al (Chalifour et al, 2003, J. Biol. Chem. 278:34874-81). Briefly, pre-treated Aβ40 or Aβ42 (40 μM in 20 mM Tris, pH 7.4) was diluted with an equal volume of 8 μM Thioflavin T (ThT) in Tris (20 mM, pH 7.4, 300 mM NaCl). Aliquots of Aβ/ThT (200 μL) were added to wells of a black polystyrene 96-well plate, followed by 2 μL of a compound in DMSO (variable concentration), or DMSO alone (controls). Incubations were performed in triplicate and were taken to contain 20 μM Aβ, various concentration of compound in 20 mM Tris, pH 7.4, 150 mM NaCl, 1% DMSO. Plates were covered with clear polystyrene lids and incubated at 37° C. in a Tecan Genios microplate reader.
Analysis of ThT and ThS Aggregation Assays
Fluorescence readings (λex=450 nm, λem=480 nm) were taken every 15 min., after first shaking at high intensity for 15 s and allowing to settle for 10 s before each reading. Active compounds attenuated the increase in fluorescence over time that occurred in controls. In FIGS. 1-7, the time this procedure was performed extended to 80 hours (rightmost part of X-axis), at which point fluorescence increase generally reached an asymptote. Applying a definition of DMSO control at 80 hr as 100% aggregation (0% inhibition) and DMSO control at 0 hr as 0% aggregation (100% inhibition), a % inhibition score where higher is better can be calculated for a given concentration of compound. By repeating this procedure over several concentrations, a […] (IC50) can be measured, as is given in the table below for some compounds.

Sequence of Terminally biotinylated beta-amyloid (Aβ42) (P05067 672-713, species assumed): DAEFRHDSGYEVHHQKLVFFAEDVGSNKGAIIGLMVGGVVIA

Row | SMILES | IC50 [1] | inhibition at 10 µM (Aβ40) | inhibition at 5 µM (Aβ40; 80 h, compound 5 μm (so in the source), read-out: % inhib Thioflavin T Aβ 40 (5 μm))
1 | c1ccc(-c2cc(N3CC(CN4CCCC4)C3)c3nonc3c2)cc1 [compound 1486] | 19.7 µM | 32% | 
2 | O=C(c1cc(N2CC(CN3CCCC3)C2)c2nonc2c1)N1CCOCC1 [compound 1538] | 2.9 µM | 54% | 47%
3 | O=C(C1CN(c2cc(Br)cc3nonc23)C1)N1CCCC1 [compound 1497] | > 20 µM | 65% | 
4 | COc1cccc(OC)c1-c1cc(N2CC(CN3CCCC3)C2)c2nonc2c1 [compound 1511] | 21.3 µM | 27% | 
